Data: patent US8604016B2, “Heterocyclic inhibitors of glutaminase” (Calithera Biosciences Inc., priority 2011, dated 2013)
In brackets after ≈: the same amount, converted by molar mass. One block for each molecule: values may come before it.

Columns and labels:
[1] = molecular target: T1, recombinant form of Glutaminase 1 (GAC) (Homo sapiens, UniProt O94925); test: Recombinant Enzyme Assay (GAC coupled to GDH, NADH absorbance, no preincubation); type: biochemical; settings: no preincubation
How it was run: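 GAC (4 nM) in Tris-HCl pH 8.0 with 150 mM K2HPO4, EDTA, BSA, DTT, plus 4 units/ml GDH and 4 mM ADP, without preincubation. Absorbance at 340 nm was read kinetically for 15 min at 20° C. Slopes (mAU/min) were compared with DMSO-only and control-compound wells on the same plate.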

[2] = molecular target: T1, recombinant form of Glutaminase 1 (GAC); test: Recombinant Enzyme Assay - Time Dependence (60 minutes enzyme/compound preincubation); type: biochemical
Description: The enzyme/compound mix was sealed with sealing foil (USA Scientific) and allowed to incubate, with mild agitation, for 60 minutes at 20° C. Enzymatic reaction was started with the addition of 50 μL of substrate solution (50 mM Tris-HCl pH 8.0, 0.2 mM EDTA, 150 mM K2HPO4, 0.1 mg/ml BSA, 1 mM DTT, 20 mM L-glutamine, 2 mM NAD^+, and 10 ppm antifoam) and read in a Molecular Devices M5 plate reader at 20° C. The plate reader was configured to read absorbance (λ=340 nm) in kinetic mode for 15 minutes. Data was recorded as milli-absorbance units per minute and slopes were compared to a control compound and a DMSO-only control on the same plate. Compounds with slopes less than the DMSO control were considered inhibitors and plate variability was assessed using the control compound.

[3] = Solubility (18 hr vortex mixing at room temperature, filtration, HPLC); type: physicochemical; settings: thermodynamic from solid
Description: Ca. 1 mg portions of test article were combined with 120 μL solvent in wells of a 96×2 mL polypropylene plate. […] The contents of all wells were then filtered through a 0.45 μm GHP filter plate to yield clear filtrates. 5 μL of each filtrate was diluted into 100 μL DMF and vortex mixed to yield HPLC samples. Duplicate quantitation standards for each test article were prepared by diluting weighed portions of solid test article in measured volumes of DMF. 2 μL of each HPLC sample and quantitation standard were analyzed by HPLC using the method outlined in Table 5. Dissolved test article concentrations were calculated by peak area ratio against the appropriate quantitation standards.

[4] = read-out: GAC Delta N2 IC50 no preinc
[5] = read-out: GAC Delta N2 IC50 60 min preinc
[6] = read-out: GAC Delta N2 IC50 60 min

IC50 [1, 4]: 100 nM
SMILES: O=C(Cc1ccccc1)Nc1nnc(CCCCc2nnc(NC(=O)Cc3ccccc3CO)s2)s1 [Compound 333]

IC50 [1, 4]: 160 nM
SMILES: COc1ccc(Cl)c(CC(=O)Nc2nnc(CCCCc3nnc(NC(=O)Cc4ccccc4)s3)s2)c1F [Compound 343]

IC50 [1, 4]: 160 nM
SMILES: O=C(Cc1ccccc1)Nc1nnc(CCCCc2nnc(NC(=O)Cc3c(Cl)ccc(O)c3F)s2)s1 [Compound 345]

IC50 [1, 4]: 120 nM
SMILES: O=C(Cc1ccccc1)Nc1nnc(CCCCc2nnc(NC(=O)Cc3ccc(F)c(O)c3F)s2)s1 [Compound 346]

IC50 [1, 4]: 220 nM
SMILES: O=C(Cc1ccccc1)Nc1nnc(CCSCCc2nnc(NC(=O)Cc3cccnc3)s2)s1 [Compound 347]

IC50 [1, 4]: > 20000 nM
SMILES: CC(=O)Nc1nnc(CCSCCc2nnc(N)s2)s1 [Compound 357]

IC50 [1, 4]: 380 nM
SMILES: O=C(Cc1ccccc1)Nc1nnc(CCSCCc2nnc(NC(=O)Cc3ccccn3)s2)s1 [Compound 359]

IC50 [1, 4]: 1800 nM
SMILES: O=C(Cc1ccncc1)Nc1nnc(CCSCCc2nnc(NC(=O)Cc3ccncc3)s2)s1 [Compound 361]

IC50 [1, 4]: 280 nM
SMILES: CC(C)COC(=O)Nc1nnc(CCCCc2nnc(NC(=O)Cc3ccccc3)s2)s1 [Compound 370]

IC50 [1, 4]: 160 nM
SMILES: O=C(Cc1ccccc1)Nc1nnc(CCSCc2nnc(NC(=O)Cc3cccc(Cl)c3)s2)s1 [Compound 372]

IC50 [1, 4]: 170 nM
SMILES: O=C(Cc1ccccc1)Nc1nnc(CCSCc2nnc(NC(=O)Cc3ccccn3)s2)s1 [Compound 373]

IC50 [1, 4]: 260 nM
SMILES: O=C(Cc1ccccc1)Nc1nnc(CCCCc2nnc(NC(=O)OCc3ccccc3)s2)s1 [Compound 374]

IC50 [1, 4]: 350 nM
SMILES: O=C(Cc1ccccc1)Nc1nnc(CCSCc2nnc(NC(=O)C(O)c3cccc(Cl)c3)s2)s1 (centres unmarked) [Compound 376]

IC50 [1, 4]: 280 nM
SMILES: O=C(Cc1ccccc1)Nc1nnc(CCSCc2nnc(NC(=O)[C@@H](O)c3ccccc3)s2)s1 [Compound 377]

IC50 [1, 4]: 220 nM
SMILES: O=C(Cc1ccccc1)Nc1nnc(CCSCc2nnc(NC(=O)Cc3cccc(OCCN4CCOCC4)c3)s2)s1 [Compound 378]

IC50 [1, 4]: 1200 nM
SMILES: COC(=O)Nc1nnc(CCCCc2nnc(NC(=O)Cc3ccccc3)s2)s1 [Compound 387]

IC50 [1, 4]: 210 nM
SMILES: CCCCOC(=O)Nc1nnc(CCCCc2nnc(NC(=O)Cc3ccccc3)s2)s1 [Compound 388]

IC50 [2, 5]: 42 nM
SMILES: O=C(Cc1ccccc1)Nc1nnc(CCCCc2nnc(NC(=O)Cc3cccc(OCCN4CCOCC4)c3)s2)s1 [Compound 390]

IC50 [2, 5]: 7 nM
SMILES: CN(Cc1cccc(CC(=O)Nc2nnc(CCCCc3nnc(NC(=O)Cc4ccccc4)s3)s2)c1)C(=O)OC(C)(C)C [Compound 391]

IC50 [2, 5]: 14 nM
SMILES: O=C(Cc1ccccc1)Nc1nnc(CCCCc2nnc(NC(=O)Cc3cccc(Cn4cccn4)c3)s2)s1 [Compound 392]

IC50 [2, 5]: 100 nM
SMILES: CNCc1cccc(CC(=O)Nc2nnc(CCCCc3nnc(NC(=O)Cc4ccccc4)s3)s2)c1 [Compound 393]

IC50 [2, 6]: 88 nM
SMILES: CN(C)Cc1cccc(CC(=O)Nc2nnc(CCCCc3nnc(NC(=O)Cc4ccccc4)s3)s2)c1 [Compound 394]

IC50 [2, 6]: 56 nM
SMILES: Cc1cccc(CNC(=O)Nc2nnc(CCCCc3nnc(NC(=O)Cc4ccccc4)s3)s2)c1 [Compound 417]

IC50 [2, 6]: 70 nM
SMILES: NCc1cccc(CC(=O)Nc2nnc(CCCCc3nnc(NC(=O)Cc4ccccc4)s3)s2)c1 [Compound 437]

IC50 [2, 6]: 740 nM
SMILES: CC(C)NC(=O)Nc1nnc(CCCCc2nnc(NC(=O)Cc3ccccc3)s2)s1 [Compound 438]

IC50 [2, 6]: 6 nM
SMILES: CC(C)(C)OC(=O)NCc1cc(CC(=O)Nc2nnc(CCCCc3ccc(NC(=O)Cc4ccccc4)nn3)s2)ccc1F [Compound 492]

IC50 ([1]; read-out: GAC Delta N2 IC50 no): 480 nM
SMILES: O=C(Cc1cccnc1)Nc1nnc(CCSCCc2nnc(NC(=O)Cc3cccnc3)s2)s1 [Compound 638]

IC50 [1, 4]: > 20000 nM
SMILES: O=C(Cc1ccccc1)Nc1nnc(C[C@@H]2C[C@H]2Cc2nnc(NC(=O)Cc3ccccc3)s2)s1 [Compound 1035]

More lines, now with the values behind:

SMILES: COc1ccccc1-c1cccc(CC(=O)Nc2nnc(CCCCc3nnc(NC(=O)Cc4cccc(-c5ccccc5OC)c4)s3)s2)c1 [Compound 326]
IC50 [1, 4]: > 20000 nM

SMILES: CC(C)(C)OC(=O)Nc1cccc(CC(=O)Nc2nnc(CCCCc3nnc(NC(=O)Cc4cccc(NC(=O)OC(C)(C)C)c4)s3)s2)c1 [Compound 327]
IC50 [1, 4]: > 20000 nM

SMILES: O=C(Cc1cccc(-n2cccc2)c1)Nc1nnc(CCCCc2nnc(NC(=O)Cc3cccc(-n4cccc4)c3)s2)s1 [Compound 330]
IC50 [1, 4]: > 20000 nM

SMILES: O=C(Cc1cccc(-c2cccc(F)c2)c1)Nc1nnc(CCCCc2nnc(NC(=O)Cc3cccc(-c4cccc(F)c4)c3)s2)s1 [Compound 331]
IC50 [1, 4]: > 20000 nM

SMILES: O=C(CCN1CCOCC1)OC(C(=O)Nc1nnc(CCCCc2nnc(NC(=O)C(OC(=O)CCN3CCOCC3)c3cccc(Cl)c3)s2)s1)c1cccc(Cl)c1 (centres unmarked) [Compound 332]
IC50 [1, 4]: 3300 nM

SMILES: O=C(Cc1ccccc1)Nc1ccc(CCCCc2nnc(NC(=O)C(OC(=O)CCN3CCOCC3)c3ccccc3)s2)nn1 (centres unmarked) [Compound 334]
IC50 [1, 4]: 640 nM

SMILES: CCOC(=O)Nc1nnc(CCSCCc2nnc(NC(=O)OCC)s2)s1 [Compound 356]
IC50 [1, 4]: > 20000 nM

SMILES: O=C(CCN1CCOCC1)OC(C(=O)Nc1nnc(CCCCc2nnc(NC(=O)C(O)c3cccc(Cl)c3)s2)s1)c1cccc(Cl)c1 (centres unmarked) [Compound 358]
IC50 [1, 4]: 1400 nM

SMILES: O=C(Cc1cccc(Cn2cccn2)c1)Nc1nnc(CCCCc2nnc(NC(=O)Cc3cccc(Cn4cccn4)c3)s2)s1 [Compound 362]
IC50 [1, 4]: 350 nM

SMILES: O=C(Cc1cccc(-n2ccnc2)c1)Nc1nnc(CCCCc2nnc(NC(=O)Cc3cccc(-n4ccnc4)c3)s2)s1 [Compound 363]
IC50 [1, 4]: 65 nM

SMILES: CCOC(=O)Nc1nnc(CCCCc2nnc(NC(=O)Cc3ccccc3)s2)s1 [Compound 369]
IC50 [1, 4]: 810 nM

SMILES: O=C(Cc1ccccc1)Nc1ccc(CCCCc2nnc(NC(=O)C(OC(=O)CCN3CCOCC3)c3cccc(Cl)c3)s2)nn1 (centres unmarked) [Compound 389]
IC50 [2, 5]: 84 nM

SMILES: CCCC(=O)OCN(C(=O)Cc1ccccc1)c1nnc(CCCCc2ccc(NC(=O)Cc3ccccc3)nn2)s1 [Compound 402]
solubility at 18 h ([3]; 50 mM citrate buffer pH 2.3, 20 °C, aqueous buffer, 50 mM Cit pH 2.3, room temperature): < 4 µg/mL | solubility at 18 h ([3]; 50 mM citrate buffer pH 3.3, 20 °C, aqueous buffer, 50 mM Cit pH 3.3, room temperature): < 4 µg/mL | solubility at 18 h ([3]; 50 mM citrate buffer pH 4.4, 20 °C, aqueous buffer, 50 mM Cit pH 4.4, room temperature): < 4 µg/mL | solubility at 18 h ([3]; 50 mM citrate buffer pH 5.4, 20 °C, aqueous buffer, 50 mM Cit pH 5.4, room temperature): < 4 µg/mL | solubility at 18 h ([3]; 20 °C, aqueous buffer, PBS, room temperature): < 4 µg/mL | solubility at 18 h ([3]; 20 °C, aqueous with cosolvent or surfactant or cyclodextrin, 10% CrEL/50 mM cit, room temperature): 157 µg/mL (≈ 268 µM) | solubility at 18 h ([3]; 20 °C, aqueous with cosolvent or surfactant or cyclodextrin, 10% PS80/50 mM cit, room temperature): 153 µg/mL (≈ 261 µM) | solubility at 18 h ([3]; 20 °C, aqueous with cosolvent or surfactant or cyclodextrin, 20% HPBCD/50 mM cit, room temperature): 56 µg/mL (≈ 95.4 µM) | solubility at 18 h ([3]; 20 °C, aqueous with cosolvent or surfactant or cyclodextrin, 20% SBECD/50 mM cit, room temperature): 19 µg/mL (≈ 32.4 µM) | solubility at 18 h ([3]; 20 °C, oil or lipid, Capryol 90, room temperature): 13700 µg/mL (≈ 23300 µM) | solubility at 18 h ([3]; 20 °C, oil or lipid, Capryol PGMC, room temperature): 11200 µg/mL (≈ 19100 µM) | solubility at 18 h ([3]; 20 °C, oil or lipid, Labrasol, room temperature): 31000 µg/mL (≈ 52900 µM) | solubility at 18 h ([3]; 20 °C, oil or lipid, canola oil, room temperature): 529 µg/mL (≈ 902 µM) | solubility at 18 h ([3]; 20 °C, organic solvent or mixture, EtOH, room temperature): 2960 µg/mL (≈ 5040 µM) | solubility at 18 h ([3]; 20 °C, organic solvent or mixture, PEG400, room temperature): 30200 µg/mL (≈ 51400 µM) | solubility at 18 h ([3]; 20 °C, organic solvent or mixture, PG, room temperature): 1360 µg/mL (≈ 2330 µM) | solubility at 18 h ([3]; 20 °C, pH 1, simulated gastric fluid, 0.1M HCl, room temperature): < 4 µg/mL | solubility at 18 h ([3]; 20 °C, pH 13, aqueous buffer, 0.1M NaOH, room temperature): < 4 µg/mL | solubility at 18 h ([3]; 20 °C, saline or isotonic, 0.9% NaCl, room temperature): < 4 µg/mL | solubility at 18 h ([3]; water, room temperature (ca. 20 C)): < 4 µg/mL

SMILES: Nc1ccc(CCCCc2nnc(NC(=O)C(O)c3cccc(Cl)c3)s2)nn1 (centres unmarked) [Compound 411]
IC50 [2, 6]: 220 nM

SMILES: CC(C)(C)OC(=O)NCc1cccc(CC(=O)Nc2nnc(CCCCc3ccc(NC(=O)C(O)c4cccc(Cl)c4)nn3)s2)c1 (centres unmarked) [Compound 422]
IC50 [2, 6]: 7 nM

SMILES: O=C(CN1CCOCC1)NCc1ccc(CC(=O)Nc2nnc(CCCCc3ccc(NC(=O)Cc4ccccc4)nn3)s2)cc1 [Compound 442]
IC50 [2, 6]: 7 nM

SMILES: O=C(Nc1ccc(CCCCc2nnc(NC(=O)C(O)c3cccc(Cl)c3)s2)nn1)C(O)c1cccc(Cl)c1 (centres unmarked) [Compound 446]
IC50 [2, 6]: 11 nM

SMILES: CC(C(=O)Nc1ccc(CCCCc2nnc(NC(=O)C(O)c3cccc(Cl)c3)s2)nn1)c1ccccc1 (centres unmarked) [Compound 468]
IC50 [2, 6]: 16 nM

SMILES: O=C(Cc1ccccc1)Nc1ccc(CCCCc2nnc(NC(=O)Cc3cccc(OCc4ccccn4)c3)s2)nn1 [Compound 480]
IC50 [2, 6]: > 20000 nM

SMILES: CC(C(=O)Nc1nnc(CCCCc2ccc(NC(=O)Cc3cccc(CNC(=O)OC(C)(C)C)c3)nn2)s1)c1ccccc1 (centres unmarked) [Compound 489]
IC50 [2, 6]: 8 nM

SMILES: O=C(Cc1ccccc1)Nc1ccc(CCCCc2ccc(NC(=O)Cc3ccccc3)nn2)nn1 [Compound 1038]
IC50 [1, 4]: 80 nM
